SMILES strings stand for the structures.

For orientation: Ki means the dissociation constant of the complex between target and ligand, obtained from inhibition or displacement. Lower therefore signals higher affinity. One may read the pKi as −log10 of the Ki, conventionally taken in molar units.

The nature of this assay: Displacement of [3H]muscimol from GABAA receptor in Sprague-Dawley rat brain membrane`after 60 mins by TopCount microplate scintillation counting analysis. In general terms: In a radioligand displacement assay an active substance lowers the binding of a labelled ligand.

Compound `CC1(c2cc(O)no2)CCNCC1` showed a Ki of 37000 nM and a pKi of 4.43.

Turning to `Oc1noc(C2CCNCC2)c1Cc1cccc2ccccc12`, the Ki stood at 100 nM and the pKi stood at 7.

Compound `Oc1noc(C2CCNCC2)c1CCCC(c1ccccc1)c1ccccc1` displayed a Ki of 700 nM and a pKi of 6.16.

Turning to `Oc1noc(C2CCNCC2)c1C(c1ccccc1)c1ccccc1`, the Ki came to 960 nM and the pKi is recorded as 6.02.

The compound `Oc1noc(C2CCNCC2)c1CCc1ccc2ccccc2c1` registered a Ki of 490 nM and a pKi of 6.31.

On to `Oc1noc(C2CCNCC2)c1Cc1ccc2ccccc2c1Cl`, for which the affinity, expressed as Ki, was 16 nM and the pKi was 7.8.

The compound `Oc1noc(C2CCNCC2)c1Cc1ccc2ccc(Br)cc2c1` registered a Ki of 109 nM and a pKi of 6.96.

As for `CSc1c(Cc2c(O)noc2C2CCNCC2)ccc2ccccc12`, the Ki is 28 nM and the pKi was 7.55.

In turn, `Oc1noc(C2CCNCC2)c1Cc1ccc2ccccc2c1-c1ccccc1` returned a Ki of 21 nM and a pKi of 7.68.

With `On1nc(Cc2cccc3ccccc23)c(C2CCNCC2)c1-c1ccccc1`, the Ki is 22 nM and the pKi was found to be 7.66.

For `On1nc(-c2ccccc2)c(C2CCNCC2)c1Cc1cccc2ccccc12`, the Ki turned out to be 1500 nM and the pKi amounted to 5.82.

For the compound `Oc1noc(C2CCNCC2)c1Cc1ccc2c(Br)cccc2c1`, the affinity corresponds to a Ki of 80 nM and the pKi is given as 7.1.

The compound `Oc1noc(C2CCNCC2)c1Cc1ccc2cccc(Br)c2c1` registered a Ki of 45 nM and a pKi of 7.35.

With `Oc1noc(C2CCNCC2)c1-c1cccc2ccccc12`, the Ki is 820 nM and the pKi worked out at 6.09.

In the case of `N#Cc1c(Cc2c(O)noc2C2CCNCC2)ccc2ccccc12`, the Ki was found to be 28 nM and the pKi was determined as 7.55.

With `Oc1noc(C2CCNCC2)c1Cc1ccc2ccccc2c1F`, the Ki was found to be 19 nM and the negative-log Ki (pKi) is reported as 7.72.

The compound `Oc1noc(C2CCNCC2)c1-c1ccc2ccccc2c1` displayed an inhibition constant (Ki) of 36 nM and a pKi of 7.44.

(Values after ChEMBL document CHEMBL3045445, “Structural features of GABAA receptor antagonists: pharmacophore modeling and 3D-QSAR studies” (Med Chem Res, 2013).)
